Test results published in patent publication US20180186755A1, “LYSYL OXIDASE-LIKE 2 INHIBITORS AND USES THEREOF” (PharmAkea, Inc., priority 2015, published 2018).

What follows are compounds tested against T1, human LOXL2 (Homo sapiens, UniProt Q9Y4K0) (assay: Human LOXL2 amine oxidase activity assay (Amplex Red fluorescence)). Details: concentrated conditioned media from CHO cells stably expressing human LOXL2; 2 h at 37° C. preincubation; DAP substrate.
T1 construct: expressed in transfected cells; 10-20x concentrated conditioned media used as the enzyme source
T1 sequence (Q9Y4K0 26-774): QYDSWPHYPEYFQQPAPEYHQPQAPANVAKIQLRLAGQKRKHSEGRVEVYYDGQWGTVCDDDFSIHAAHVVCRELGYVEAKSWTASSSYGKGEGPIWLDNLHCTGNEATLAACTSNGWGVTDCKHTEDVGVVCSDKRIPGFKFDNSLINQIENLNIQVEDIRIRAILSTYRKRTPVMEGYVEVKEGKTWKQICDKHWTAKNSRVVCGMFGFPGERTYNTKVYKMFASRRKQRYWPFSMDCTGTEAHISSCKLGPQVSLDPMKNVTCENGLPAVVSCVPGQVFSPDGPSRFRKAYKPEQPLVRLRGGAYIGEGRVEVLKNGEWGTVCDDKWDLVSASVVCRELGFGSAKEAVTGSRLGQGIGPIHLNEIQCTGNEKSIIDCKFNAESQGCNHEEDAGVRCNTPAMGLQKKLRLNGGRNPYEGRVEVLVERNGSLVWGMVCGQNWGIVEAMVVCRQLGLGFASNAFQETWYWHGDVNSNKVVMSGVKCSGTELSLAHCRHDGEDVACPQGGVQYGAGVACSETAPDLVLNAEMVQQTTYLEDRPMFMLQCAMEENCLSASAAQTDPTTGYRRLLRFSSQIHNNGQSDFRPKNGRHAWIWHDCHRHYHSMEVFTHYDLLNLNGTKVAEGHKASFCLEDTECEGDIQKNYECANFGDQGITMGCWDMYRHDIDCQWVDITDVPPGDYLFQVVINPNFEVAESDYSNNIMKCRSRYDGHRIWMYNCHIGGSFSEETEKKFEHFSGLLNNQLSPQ
Assay type: biochemical
Protocol: Example B-1: Human LOXL2 Amine Oxidase Activity Assay
LOXL2 amine oxidase activity is evaluated by measuring Amplex Red fluorescence using 10-20× concentrated conditioned media from CHO cells stably expressing human LOXL2.
To assay for amine oxidase activity, 10 μL of the concentrated conditioned media is incubated with 2 μL of test compound in DMSO and 73 μL Assay Buffer (50 mM Borate Buffer, pH8) for 2 h at 37° C. After the 2 h incubation, 5 ul of 10 mM 1,5-Diaminopentane (DAP) diluted in Assay Buffer and 10 μl of Amplex Red Mix (8.5 μl Assay Buffer+0.5 μl of 10 mM Amplex Red+1 μl of 500 U/ml Horseradish Peroxidase) are added and the plate mixed and immediately placed on the FlexStaion for fluorescence measurements. Fluorescence is read in kinetic mode every 2 min for 1 hour at excitation=544 and emission=590. The amine oxidase activity is calculated from the slope of the linear portion of the curve.

IC50 [nM] | SMILES
< 100 | NCc1cc(OCc2cccc(C(=O)Nc3cccc(C(F)(F)F)c3)c2)ncn1 [Compound 1-77, 3-(((6-(Aminomethyl)pyrimidin-4-yl)oxy)methyl)-N-(3-(trifluoromethyl)phenyl)benzamide]
< 100 | NCc1cc(OCc2cccc(C(=O)NCc3cccnc3)c2)ncn1 [Compound 1-79, 3-(((6-(Aminomethyl)pyrimidin-4-yl)oxy)methyl)-N-(pyridin-3-ylmethyl)benzamide]
< 100 | NCc1cc(OCc2cccc(C(=O)NCc3ccnc(Cl)c3)c2)ncn1 [Compound 1-80, 3-(((6-(Aminomethyl)pyrimidin-4-yl)oxy)methyl)-N-((2-chloropyridin-4-yl)methyl)benzamide]
< 100 | NCc1cc(OCc2cccc(C(=O)NCc3nc4ccccc4o3)c2)ncn1 [Compound 1-83, 3-(((6-(Aminomethyl)pyrimidin-4-yl)oxy)methyl)-N-(benzo[d]oxazol-2-ylmethyl)benzamide]
< 100 | NCc1cc(OCc2cccc(C(=O)NCc3cc4cccnc4[nH]3)c2)ncn1 [Compound 1-87, N-((1H-pyrrolo[2,3-b]pyridin-2-yl)methyl)-3-(((6-(aminomethyl)pyrimidin-4-yl)oxy)methyl)benzamide]
< 100 | NCc1cc(OCc2cccc(C(=O)N3CCc4cccnc4C3)c2)ncn1 [Compound 1-88, (3-(((6-(Aminomethyl)pyrimidin-4-yl)oxy)methyl)phenyl)(5,6-dihydro-1,7-naphthyridin-7(8H)-yl)methanone]
< 100 | Cc1n[nH]c2c1CN(C(=O)c1cccc(COc3cc(CN)ncn3)c1)CC2 [Compound 1-89, (3-(((6-(Aminomethyl)pyrimidin-4-yl)oxy)methyl)phenyl)(3-methyl-6,7-dihydro-1H-pyrazolo[4,3-c]pyridin-5(4H)-yl)methanone]
< 100 | NCc1cc(OCc2cccc(C(=O)N3CCc4c([nH]c5ncccc45)C3)c2)ncn1 [Compound 1-90, (3-(((6-(Aminomethyl)pyrimidin-4-yl)oxy)methyl)phenyl)(5H-pyrrolo[2,3-b:5,4-c′]dipyridin-7(6H,8H,9H)-yl)methanone]
< 100 | NCc1cc(OCc2cccc(C(=O)N3CCN(c4ccccc4)CC3)c2)ncn1 [Compound 1-91, (3-(((6-(Aminomethyl)pyrimidin-4-yl)oxy)methyl)phenyl)(4-phenylpiperazin-1-yl)methanone]
< 100 | NCc1cc(OCc2cccc(C(=O)N3CCc4cccnc43)c2)ncn1 [Compound 1-92, (3-(((6-(Aminomethyl)pyrimidin-4-yl)oxy)methyl)phenyl)(2,3-dihydro-1H-pyrrolo[2,3-b]pyridin-1-yl)methanone]
< 100 | NCc1cc(OCc2cccc(C(=O)N3CCc4ccncc43)c2)ncn1 [Compound 1-93, (3-(((6-(Aminomethyl)pyrimidin-4-yl)oxy)methyl)phenyl)(2,3-dihydro-1H-pyrrolo[2,3-c]pyridin-1-yl)methanone]
< 100 | NCc1cc(OCc2cccc(C(=O)N3CCC(O)(C(F)(F)F)CC3)c2)ncn1 [Compound 1-94, (3-(((6-(Aminomethyl)pyrimidin-4-yl)oxy)methyl)phenyl)(4-hydroxy-4-(trifluoromethyl)piperidin-1-yl)methanone]

More lines, now with the values behind:

SMILES | IC50 [nM]
NCc1cc(Oc2cccc(C(=O)N3CCN(c4ncc(Cl)cc4Cl)CC3)c2)ncn1 [Compound 1-73, (3-((6-(Aminomethyl)pyrimidin-4-yl)oxy)phenyl)(4-(3,5-dichloropyridin-2-yl)piperazin-1-yl)methanone] | < 100
NCc1cc(Oc2cccc(C(=O)N3CCC(O)(C(F)(F)F)CC3)c2)ncn1 [Compound 1-74, (3-((6-(Aminomethyl)pyrimidin-4-yl)oxy)phenyl)(4-hydroxy-4-(trifluoromethyl)piperidin-1-yl)methanone] | < 100
C#C[C@H](CC(=O)OC)NC(=O)c1cccc(Oc2cc(CN)ncn2)c1 [Compound 1-75, (S)-Methyl 3-(3-((6-(aminomethyl)pyrimidin-4-yl)oxy)benzamido)pent-4-ynoate] | < 100
C#C[C@@H](CC(=O)OC)NC(=O)c1cccc(Oc2cc(CN)ncn2)c1 [Compound 1-76, (R)-Methyl 3-(3-((6-(aminomethyl)pyrimidin-4-yl)oxy)benzamido)pent-4-ynoate] | < 100
NCc1cc(OCc2cccc(C(=O)N[C@@H](CO)c3ccccc3)c2)ncn1 [Compound 1-78, (R)-3-(((6-(Aminomethyl)pyrimidin-4-yl)oxy)methyl)-N-(2-hydroxy-1-phenylethyl)benzamide] | < 100
NCc1cc(OCc2cccc(C(=O)NCc3cc4ccccc4s3)c2)ncn1 [Compound 1-81, 3-(((6-(Aminomethyl)pyrimidin-4-yl)oxy)methyl)-N-(benzo[b]thiophen-2-ylmethyl)benzamide] | < 100
NCc1cc(OCc2cccc(C(=O)NCc3cc4cc(F)ccc4s3)c2)ncn1 [Compound 1-82, 3-(((6-(Aminomethyl)pyrimidin-4-yl)oxy)methyl)-N-((5-fluorobenzo[b]thiophen-2-yl)methyl)benzamide] | < 100
NCc1cc(OCc2cccc(C(=O)NCc3cc4ccccc4[nH]3)c2)ncn1 [Compound 1-84, N-((1H-indol-2-yl)methyl)-3-(((6-(aminomethyl)pyrimidin-4-yl)oxy)methyl)benzamide] | < 100
NCc1cc(OCc2cccc(C(=O)NCc3cc4cc(F)ccc4[nH]3)c2)ncn1 [Compound 1-85, 3-(((6-(Aminomethyl)pyrimidin-4-yl)oxy)methyl)-N-((5-fluoro-1H-indol-2-yl)methyl)benzamide] | < 100
Cn1c(CNC(=O)c2cccc(COc3cc(CN)ncn3)c2)cc2ccccc21 [Compound 1-86, 3-(((6-(Aminomethyl)pyrimidin-4-yl)oxy)methyl)-N-((1-methyl-1H-indol-2-yl)methyl)benzamide] | < 100
NCc1cc(NCc2cccc(C(=O)Nc3cccc(C(F)(F)F)c3)c2)ncn1 [Compound 1-96, 3-(((6-(Aminomethyl)pyrimidin-4-yl)amino)methyl)-N-(3-(trifluoromethyl)phenyl)benzamide] | < 100
NCc1cc(NCc2cccc(C(=O)NCc3cc4ccccc4s3)c2)ncn1 [Compound 1-97, 3-(((6-(Aminomethyl)pyrimidin-4-yl)amino)methyl)-N-(benzo[b]thiophen-2-ylmethyl)benzamide] | < 100
NCc1cc(NCc2cccc(C(=O)NCc3sc4ccccc4c3Cl)c2)ncn1 [Compound 1-98, 3-(((6-(Aminomethyl)pyrimidin-4-yl)amino)methyl)-N-((3-chlorobenzo[b]thiophen-2-yl)methyl)benzamide] | < 100
NCc1cc(-n2ccc3c(CO)cccc32)ncn1 [Compound 1-99, (1-(6-(Aminomethyl)pyrimidin-4-yl)-1H-indol-4-yl)methanol] | 100 to 1000
NCc1cc(NCc2cccc(C(=O)N3CCN(c4ccccc4)CC3)c2)ncn1 [Compound 1-100, (3-(((6-(Aminomethyl)pyrimidin-4-yl)amino)methyl)phenyl)(4-phenylpiperazin-1-yl)methanone] | 100 to 1000
NCc1cc(Oc2cccc3c2CCC(=O)N3)ncn1 [Compound 1-101, 5-((6-(Aminomethyl)pyrimidin-4-yl)oxy)-3,4-dihydroquinolin-2(1H)-one] | < 100
NCc1cc(N2CC[C@@H](C(=O)Nc3ccccc3)C2)ncn1 [Compound 1-102, (R)-1-(6-(Aminomethyl)pyrimidin-4-yl)-N-phenylpyrrolidine-3-carboxamide] | 100 to 1000
